Measurements: PubChem BioAssay AID977605 (Broad Institute, 2014)
Activity calls are given as the source filed them.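 The calls were made as follows: active = fitted curve reaches 40% activation below the top valid tested dose, in every test run; inconclusive = test runs disagree on the call; inactive = the rest, including effects opposite to the expected direction.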

Assay: endothelial E-selectin upregulation by compounds – imaging, HUVEC, cherry-picked samples, dose response (AID 977605);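 also: signal is the share of imaged cells scored positive for E-selectin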
Settings: HUVEC E-selectin immunostaining, at 18 µM (top of the series), percent of TNF-alpha response over vehicle

Row | SMILES | activation
1 | COc1ccc(NC(=O)N(C)C[C@H]2Oc3ccc(NC(=O)CCCCCC(=O)Nc4ccccc4N)cc3CC(=O)N([C@@H](C)CO)C[C@H]2C)cc1 | 0.745% (inactive)
2 | C[C@H](CO)N1C[C@H](C)[C@H](CN(C)C(=O)Nc2ccc3c(c2)OCO3)Oc2ccc(NC(=O)CCCCCC(=O)Nc3ccccc3N)cc2CC1=O | 0.255% (inactive)

Same assay, conditions: HUVEC E-selectin immunostaining, at 19.5 µM (top of the series), percent of TNF-alpha response over vehicle

Row | SMILES | activation
3 | C[C@@H]1CCCCO[C@@H](CN(C)C(=O)Cc2ccccc2)[C@@H](C)CN([C@H](C)CO)C(=O)c2cc(NS(=O)(=O)c3cccs3)ccc2O1 | 0.129% (inactive)
4 | C[C@H](CO)N1C[C@H](C)[C@H](CN(C)C(=O)Nc2ccccc2)Oc2c(NS(=O)(=O)c3cccs3)cccc2C1=O | -0.044% (inactive)
5 | Cc1noc(C)c1NC(=O)N(C)C[C@H]1Oc2ccc(NC(=O)c3ccncc3)cc2C(=O)N([C@H](C)CO)C[C@H]1C | 0.014% (inactive)
6 | C[C@@H]1CN([C@H](C)CO)C(=O)c2cccc(NC(=O)CCCCCC(=O)Nc3ccccc3N)c2O[C@H]1CN(C)C | 0.064% (inactive)
7 | Cc1ccccc1CCN1CCCC(CN(C)C(=O)c2ccc3ncccc3c2)C1 (centres undefined) | 36.6% (inactive)
8 | Cc1noc(C)c1S(=O)(=O)N(C)C[C@H]1Oc2ccc(NC(=O)Nc3ccc(F)cc3)cc2CC(=O)N([C@H](C)CO)C[C@@H]1C | -0.001% (inactive)
9 | C[C@@H]1CN([C@H](C)CO)C(=O)Cc2cc(NC(=O)Nc3ccc(F)cc3)ccc2O[C@H]1CN(C)S(=O)(=O)c1ccc(Cl)cc1 | 0.054% (inactive)
10 | CC(C)NC(=O)N(C)C[C@H]1Oc2ccc(NC(=O)CCC(F)(F)F)cc2CC(=O)N([C@H](C)CO)C[C@@H]1C | -0.115% (inactive)
11 | COc1ccccc1-c1c(C)nn2c(NCCN3CCCC3)cc(C)nc12 | 0.061% (inactive)
12 | COc1ccc(CN(C)C[C@H]2Oc3ccc(NC(=O)Cn4cnnn4)cc3CC(=O)N([C@@H](C)CO)C[C@@H]2C)cc1 | -0.061% (inactive)
13 | C[C@H](CO)N1C[C@H](C)[C@@H](CN(C)S(C)(=O)=O)Oc2ccc(NC(=O)C3CCCCC3)cc2CC1=O | 0.112% (inactive)
14 | COc1ccccc1CNC(=O)[C@@H]1CCCN1S(=O)(=O)c1ccc(Cl)cc1 | -0.15% (inactive)
15 | COc1ccc(S(=O)(=O)Nc2ccc3c(c2)CC(=O)N([C@H](C)CO)C[C@@H](C)[C@H](CN(C)C(=O)NC2CCCCC2)O3)cc1 | -0.114% (inactive)
16 | Cc1ccc(CCNC(=O)C2CCC(CNc3c(N4CCC(C)CC4)c(=O)c3=O)CC2)cc1 (centres undefined) | -0.022% (inactive)
17 | COc1ccc(S(=O)(=O)N(C)C[C@H]2Oc3ccc(NC(=O)CCCN(C)C)cc3C(=O)N([C@@H](C)CO)C[C@@H]2C)cc1 | -0.152% (inactive)
18 | COc1ccc(OC)c(NC(=O)c2csc(Cl)c2OC)c1 | 2.39% (inactive)
19 | CC(=O)c1ccc(N2CCN(c3ccnc4cc(Cl)ccc34)CC2)cc1 | 1.69% (inactive)
20 | O=C(NCc1ccccc1)C(c1ccc(C(F)(F)F)cc1)N1CCN(CCN2CCOCC2)CC1 (centres undefined) | 6.03% (inactive)
21 | COC(=O)c1sc2nc(SCC(=O)N(C)c3ccccc3)n(N)c(=O)c2c1C | 1.12% (inactive)

Row | SMILES | activation
22 | C[C@@H]1CN([C@H](C)CO)C(=O)c2cc(NC(=O)CCN3CCOCC3)ccc2O[C@H]1CN(C)C(=O)Nc1ccc(C(F)(F)F)cc1 | -0.038% (inactive)
23 | CC(C)(C)c1cc(CCC(=O)NCc2ccccn2)cc(C(C)(C)C)c1O | -0.086% (inactive)
24 | C=CCn1c(=N)n(CC(=O)c2ccc(Br)s2)c2ccccc21 | 1.81% (inactive)
25 | O=S(=O)(c1ccc(F)cc1)N1CCCN(c2nccc(C(F)(F)F)n2)CC1 | -0.174% (inactive)
26 | O=C(O)CCC(=O)NCC(=O)c1ccc(F)cc1 | -0.239% (inactive)
27 | C[C@@H]1CN([C@@H](C)CO)C(=O)c2cc(NC(=O)NC3CCCCC3)ccc2O[C@@H]1CN(C)S(=O)(=O)c1ccc(Cl)cc1 | -0.037% (inactive)
28 | COc1ncnc(OC)c1S(=O)(=O)NCc1ccccc1 | -0.033% (inactive)
29 | C[C@@H]1CN([C@H](C)CO)C(=O)c2cccc(NC(=O)c3ccc(-c4nccs4)cc3)c2O[C@H]1CN(C)Cc1ccc(Oc2ccccc2)cc1 | 9.5% (inactive)
30 | Cc1ccc(C(=O)NNC(=O)CSc2nnc(CNc3ccc(F)cc3)n2C)cc1 | -0.046% (inactive)
31 | Cc1ccc(O)c([C@H](CCN(C(C)C)C(C)C)c2ccccc2)c1 | -0.269% (inactive)
32 | Cc1ccc(S(=O)(=O)N(C)C[C@H]2Oc3ccc(NC(=O)CCCN(C)C)cc3C(=O)N([C@H](C)CO)C[C@H]2C)cc1 | -0.247% (inactive)
33 | C[C@H]1CN([C@@H](C)CO)C(=O)c2cccc(NC(=O)c3nc4ccccc4s3)c2O[C@@H]1CN(C)Cc1ccc(C(F)(F)F)cc1 | -0.231% (inactive)
34 | Cc1cc(NC(=O)c2ccccc2F)n(C(C)(C)C)n1 | 0.21% (inactive)
35 | CC(C)NC(=O)Nc1ccc2c(c1)C(=O)N([C@@H](C)CO)C[C@@H](C)[C@H](CN(C)Cc1ccc(C(=O)O)cc1)O2 | -0.098% (inactive)
36 | CCOC(=O)N1CCN(c2c(N3CCOCC3)c(=O)c2=O)CC1 | 7.45% (inactive)
37 | COc1ccc(C2c3[nH]c4ccccc4c3C[C@H]3C(=O)N(CC(C)C)CC(=O)N23)c(OC)c1 (some centres undefined) | 0.036% (inactive)
38 | C[C@@H]1CN([C@@H](C)CO)C(=O)Cc2cc(NC(=O)Nc3ccc(F)cc3)ccc2O[C@@H]1CN(C)Cc1ccncc1 | 10.4% (inactive)
39 | C[C@H](CO)N1C[C@H](C)[C@@H](CN(C)Cc2ccc(C(F)(F)F)cc2)Oc2c(NS(C)(=O)=O)cccc2C1=O | -0.122% (inactive)
40 | Fc1ccc(NC(=S)N2CCN(c3cccc(C(F)(F)F)c3)CC2)cc1 | -0.235% (inactive)

Row | SMILES | activation
41 | O=C(CCC(=O)N1CCOCC1)Nc1ccc(Cl)c(Cl)c1 | 0.295% (inactive)
42 | COc1ccc(-c2nc(NC(=O)Cn3c(=O)oc4ccccc43)sc2C)cc1 | 1.37% (inactive)
43 | CC(C)NC(=O)N(C)C[C@H]1Oc2ccc(NC(=O)CCN3CCOCC3)cc2C(=O)N([C@@H](C)CO)C[C@H]1C | -0.017% (inactive)
44 | C[C@@H]1CN([C@H](C)CO)C(=O)c2cccc(NC(=O)Nc3ccc(F)cc3)c2O[C@H]1CN(C)C(=O)NC1CCCCC1 | 0.496% (inactive)
45 | COc1ccc(C(=O)Nc2ccc3c(c2)OCCO3)cc1[N+](=O)[O-] | 0.055% (inactive)
46 | C[C@@H]1CN([C@@H](C)CO)C(=O)c2cc(NC(=O)Cc3ccccc3)ccc2O[C@@H]1CN(C)Cc1ccc(Cl)c(Cl)c1 | 0.002% (inactive)
47 | CC(C)NC(=O)Nc1cccc2c1O[C@H](CN(C)Cc1ccc(Cl)c(Cl)c1)[C@H](C)CN([C@@H](C)CO)C2=O | -0.02% (inactive)
48 | COC(=O)C[C@@H]1CC[C@@H]2[C@H](COc3ccc(NC(=O)Nc4cccc(F)c4)cc3C(=O)N2C)O1 | -0.161% (inactive)
49 | COc1ccccc1N(CC(=O)NCCSc1ccccn1)S(=O)(=O)c1ccccc1 | -0.052% (inactive)
50 | C[C@H]1CN([C@@H](C)CO)C(=O)c2cc(N(C)C)ccc2O[C@H]1CN(C)C(=O)Nc1ccc2c(c1)OCO2 | 2.2% (inactive)
51 | C[C@@H]1CN([C@H](C)CO)C(=O)Cc2cc(NC(=O)Cn3cnnn3)ccc2O[C@H]1CN(C)C(=O)Nc1ccc(C(F)(F)F)cc1 | 0.232% (inactive)
52 | C[C@@H]1CN([C@@H](C)CO)C(=O)Cc2cc(NC(=O)CCCCCC(=O)Nc3ccccc3N)ccc2O[C@@H]1CN(C)C(=O)Nc1ccc2c(c1)OCO2 | 0.042% (inactive)
53 | C[C@H]1CN([C@@H](C)CO)C(=O)Cc2cc(NC(=O)C3CCCCC3)ccc2O[C@H]1CN(C)C(=O)NC1CCCCC1 | -0.185% (inactive)
54 | Brc1cnc2nc(SCc3nc4ccccc4[nH]3)[nH]c2c1 | 1.19% (inactive)
55 | C[C@@H]1CN([C@H](C)CO)C(=O)c2cc(C3=CCCC3)cnc2O[C@H]1CN(C)C(=O)Nc1ccccc1 | -0.157% (inactive)
56 | Cc1noc(C)c1NC(=O)N(C)C[C@@H]1Oc2ccc(NS(=O)(=O)c3cccs3)cc2CC(=O)N([C@H](C)CO)C[C@H]1C | -0.165% (inactive)
57 | COc1ccc(S(=O)(=O)N(C)C[C@H]2Oc3ccc(NC(=O)Nc4ccc5c(c4)OCO5)cc3CC(=O)N([C@H](C)CO)C[C@@H]2C)cc1 | 0.086% (inactive)
58 | O=C(NCc1ccccc1)C1CCCN(S(=O)(=O)c2ccc(-n3cnnn3)cc2)C1 (centres undefined) | 1.85% (inactive)
59 | COc1ccc(NC(=O)Nc2ccc3c(c2)C(=O)N([C@H](C)CO)C[C@H](C)[C@@H](CN(C)Cc2ccncc2)O3)cc1 | 4.31% (inactive)

Same assay, conditions: HUVEC E-selectin immunostaining, at 21 µM (top of the series), percent of TNF-alpha response over vehicle

Row | SMILES | activation
60 | C[C@H](CO)N1C[C@H](C)[C@H](CN(C)S(C)(=O)=O)Oc2ccc(NC(=O)C3CCCCC3)cc2C1=O | -0.059% (inactive)
61 | COc1ccc(S(=O)(=O)Nc2ccc3c(c2)CC(=O)N([C@@H](C)CO)C[C@H](C)[C@@H](CN(C)C(=O)NC2CCCCC2)O3)cc1 | 0.142% (inactive)
62 | C[C@H](CO)N1C[C@H](C)[C@H](CN(C)C)Oc2ccc(NC(=O)Nc3ccccc3)cc2CC1=O | -0.138% (inactive)
63 | C[C@H]1CN([C@@H](C)CO)C(=O)c2cc(NC(=O)Cn3cnnn3)ccc2O[C@@H]1CN(C)Cc1ccc2c(c1)OCO2 | -0.073% (inactive)
64 | CN1C(=O)c2cc(NC(=O)C3CCOCC3)ccc2OC[C@@H]2O[C@H](CC(=O)NCc3ccccc3F)CC[C@H]21 | -0.036% (inactive)
65 | C[C@H](CO)N1C[C@H](C)[C@@H](CN(C)Cc2ccc(Cl)c(Cl)c2)Oc2c(NC(=O)CCCCCC(=O)Nc3ccccc3N)cccc2C1=O | 3.2% (inactive)
66 | CC(C)NC(=O)Nc1ccc2c(c1)CC(=O)N([C@H](C)CO)C[C@@H](C)[C@@H](CN(C)Cc1ccc3c(c1)OCO3)O2 | -0.173% (inactive)
67 | Cc1noc(C)c1NC(=O)Nc1ccc2c(c1)CC(=O)N([C@@H](C)CO)C[C@@H](C)[C@@H](CN(C)Cc1ccc(Cl)c(Cl)c1)O2 | 3.17% (inactive)
68 | C[C@@H]1CN([C@H](C)CO)C(=O)Cc2cc(NC(=O)Nc3ccc(F)cc3)ccc2O[C@@H]1CN(C)Cc1ccncc1 | -0.095% (inactive)
69 | C[C@@H]1CN([C@H](C)CO)C(=O)Cc2cc(NC(=O)Nc3ccc(C(F)(F)F)cc3)ccc2O[C@H]1CN(C)Cc1ccc(Oc2ccccc2)cc1 | -0.245% (inactive)
